Reference: patent publication US20230323358A1, “COMPOSITION AND USE OF siRNAs AGAINST VEGFR2 AND TGF-BETA1 IN COMBINATION THERAPY FOR CANCER” (Sirnaomics, Inc., priority 2021, published 2023)
Where two headings read alike, the source gives them in different places. Oligonucleotides are written 5' to 3', each unit as a sugar letter and its base; * is a phosphorothioate linkage, no mark a phosphodiester; rarer units and linkages stand in square brackets, end groups in braces. Plain capitals give the bases only. {P} = phosphorylation (indicated by P); d = 2'-deoxy (DNA); m = 2'-O-methyl; r = 2'-OH (RNA); f = 2'-fluoro

Key:
VEGFR2 = experiment: EC50 of VEGFR2 siRNA candidates before and after modification, knockdown in cells; type: cell-based, human; conditions: for EC50: 24 h, 24well; for knockdown effect of the modified sequence compared with unmodified: PANC-1 and MDA-MB-231 cells
Method: MDA-MB-231 and U87 cells were seeded in 24-well cell plates (1 × 10^5/well), and then siRNAs (21mer or 25mer or negative control) were transfected with commercial transfection reagent (lipo2000), and the siRNA transfection concentration was 100 nM. Meanwhile, untreated cells were set as blank control. Total RNA was extracted from cells 24 h after transfection. Reverse transcription was performed using the kit to obtain cDNA according to the manufacturer’s instructions. Relative levels of target gene VEGFR2 mRNA expression were determined by real-time PCR, normalized to the housekeeping gene β-actin. Gene knockdown effectiveness was expressed as a percentage of the blank control. […] VEGFR2-21-h1#, VEGFR2-21-h2#, VEGFR2-21-h5#, VEGFR2-21-h7#, VEGFR2-21-hm17#, VEGFR2-21-hm18#, VEGFR2-25-h3#, and VEGFR2- 25-h4# were selected and modified as indicated in Table 3 (SEQ ID Nos. 109-124).
The EC50 of candidate sequences before and after modification in different cells (MDA-MB-231, U87-MG and PANC-1) were compared. MDA-MB-231, PANC-1 and U87-MG cells were seeded in 24-well cell plates (1 × 10^5/well), and siRNA candidates (modified or unmodified) were transfected with multiple concentration gradients in different cells. Use the same procedure as the primary screen. Finally, the data were plotted using the software GraphPad Prism8 and EC50 values were calculated.

TGF-β1 = experiment: EC50 of TGF-β1 siRNA candidates before and after modification, knockdown in cells; type: cell-based, human; conditions: SK-Hep 1 cells, homo, 24h, 24well (second TGF-β1 table); read-out: EC50 (24h, nM, 24well) SK-Hep 1
Method: DLD-1, RKO, U87-MG and PANC-1 cells were seeded into 24-well cell plates (1 × 10^5/well), and then siRNAs (21mer or negative control) were transfected with commercial transfection reagent (lipo2000). The siRNA transfection concentration was 100 nM. Untreated cells were set as a blank control. Total RNA was extracted from cells 24 h after transfection. Reverse transcription was performed using the kit to obtain cDNA according to the manufacturer’s instructions. Relative levels of target gene TGF- β1 mRNA expression were determined by real-time PCR, normalized to the housekeeping gene β-actin. Gene knockdown effectiveness was expressed as a percentage of the blank control. […] Therefore, TF1-21-hm3# and TF1-21-hm6# were selected as candidate sequences, and these two sequences were modified (see Table 4 for modified sequences).
The EC50 of candidate sequences before and after modification in different cells (U87-MG, DLD-1, SK-Hep-1, BxPC3, A549, HUCCT, PANC-1 and RKO) were compared. U87-MG, DLD-1, SK-Hep-1, BxPC3, A549, HUCCT, PANC-1 and RKO cells were seeded in 24-well cell plates (1 × 10^5/well) and transfected with multiple concentration gradients in different cells for siRNA candidates (modified or unmodified), use the same procedure as for primary screening. Finally, the data were plotted using the software GraphPad Prism8 and EC50 values were calculated.

[1] = MD-MB-231 cells, read-out: EC50 (nM, 24 h, 24well) Breast cancer MD-MB-231
[2] = PANC-1 cells, read-out: EC50 (nM, 24 h, 24well) Pancreatic cancer PANC-1
[3] = U87-MG cells, read-out: EC50 (nM, 24 h, 24well) Brain cancer U87-MG

Substance | EC50 (VEGFR2; [1]) [nM] | knockdown effect of the modified sequence compared with unmodified (VEGFR2) | EC50 (VEGFR2; [2]) [nM] | EC50 (VEGFR2; [3]) [nM] | EC50 (TGF-β1) [nM]
VEGFR2-21-hm18#: siRNA targeting VEGFR2 mRNA; sense SEQ ID 77, antisense SEQ ID 120 (sense GGAAAAAACAAAACUGUAATT; antisense UUACAGUUUUGUUUUUUCCTT; sugars from the 5' end r19 d2, backbone not given here) | 3.26 | better than that of unmodified | 3.81 | 3.17 | 
VEGFR2-21-h5#mod: Modified (2′F, 2′OME, phosphorylation) siRNA targeting VEGFR2; sense SEQ ID 137, antisense SEQ ID 145 (sense mGmCmAmUmCmAfGfCfAmUmAmAmGmAmAmAmCmUmUdTdT; antisense {P}-mAfAmGmUmUmUmCmUmUmAmUmGmCfUmGmAmUmGmCdTdT) | 0.01 |  | 0.22 | 10.4 | 
VEGFR2-21-h1#: siRNA targeting VEGFR2 mRNA; sense SEQ ID 60, antisense SEQ ID 103 (sense GCCUAGUGUUUCUCUUGAUTT; antisense AUCAAGAGAAACACUAGGCTT; sugars from the 5' end r19 d2, backbone not given here) | 0.2 | better than that of unmodified | 0.92 | 1.25 | 
VEGFR2-21-hm17#mod: Modified (2′F, 2′OME, phosphorylation) siRNA targeting VEGFR2; sense SEQ ID 135, antisense SEQ ID 143 (sense mGmGmAmCmUmGfGfCfUmUmUmGmGmCmCmCmAmAmUdTdT; antisense {P}-mAfUmUmGmGmGmCmCmAmAmAmGmCfCmAmGmUmCmCdTdT) | 0.32 |  | 0.25 | 312 | 
TF1-20190711-5#: siRNA targeting TGF-β1 mRNA; sense SEQ ID 9, antisense SEQ ID 10 (sense GAGUACACACAGCAUAUAUTT; antisense AUAUAUGCUGUGUGUACUCTT; sugars from the 5' end r19 d2, backbone not given here) |  |  |  |  | 9.8
VEGFR2-25-h4#: siRNA targeting VEGFR2 mRNA; sense SEQ ID 44, antisense SEQ ID 87 (sense CCCUUGAGUCCAAUCACACAAUUAA; antisense UUAAUUGUGUGAUUGGACUCAAGGG; RNA, backbone not given here) | 0.38 |  | 0.13 | 5.39 | 
VEGFR2-21-hm17#: siRNA targeting VEGFR2 mRNA; sense SEQ ID 76, antisense SEQ ID 119 (sense GGACUGGCUUUGGCCCAAUTT; antisense AUUGGGCCAAAGCCAGUCCTT; sugars from the 5' end r19 d2, backbone not given here) | 1.04 | better than that of unmodified | 2.09 | 16.6 | 
VEGFR2-21-h2#: siRNA targeting VEGFR2 mRNA; sense SEQ ID 61, antisense SEQ ID 104 (sense GGUCCAUUUCAAAUCUCAATT; antisense UUGAGAUUUGAAAUGGACCTT; sugars from the 5' end r19 d2, backbone not given here) | 0.72 | better than that of unmodified | 0.36 | 10.7 | 
VEGFR2-21-h5#: siRNA targeting VEGFR2 mRNA; sense SEQ ID 64, antisense SEQ ID 107 (sense GCAUCAGCAUAAGAAACUUTT; antisense AAGUUUCUUAUGCUGAUGCTT; sugars from the 5' end r19 d2, backbone not given here) | 0.4 | better than that of unmodified | 0.51 | 25.5 | 
VEGFR2-21-h1#mod: Modified (2′F, 2′OME, phosphorylation) siRNA targeting VEGFR2; sense SEQ ID 131, antisense SEQ ID 139 (sense mGmCmCmUmAmGfUfGfUmUmUmCmUmCmUmUmGmAmUdTdT; antisense {P}-mAfUmCmAmAmGmAmGmAmAmAmCmAfCmUmAmGmGmCdTdT) | 0.23 |  | 0.07 | 0.99 | 
VEGFR2-25-h 4#mod: Modified (2′F, 2′OME, phosphorylation) siRNA targeting VEGFR2; sense SEQ ID 134, antisense SEQ ID 142 (sense mCmCmCmUmUmGmAmGmUmCmCmAfAfUfCmAmCmAmCmAmAmUmUmAmA; antisense {P}-mUfUmAmAmUmUmGmUmGmUmGmAmUfUmGmGmAmCmUmCmAmAmGmGmG) | 0.21 |  | 0.35 | 34.6 | 
VEGFR2-25-h3#mod: Modified (2′F, 2′OME, phosphorylation) siRNA targeting VEGFR2; sense SEQ ID 133, antisense SEQ ID 141 (sense mGmAmCmCmAmAmCmAmUmGmGmAfGfUfCmGmUmGmUmAmCmAmUmUmA; antisense {P}-mUfAmAmUmGmUmAmCmAmCmGmAmCfUmCmCmAmUmGmUmUmGmGmUmC) | 1.65 |  | 1.76 | 1090 | 
VEGFR2-21-h7#: siRNA targeting VEGFR2 mRNA; sense SEQ ID 66, antisense SEQ ID 109 (sense GCUGACAUGUACGGUCUAUTT; antisense AUAGACCGUACAUGUCAGCTT; sugars from the 5' end r19 d2, backbone not given here) | 1.72 |  | 3 | 49.5 | 
VEGFR2-21-hm18# mod: Modified (2′F, 2′OME, phosphorylation) siRNA targeting VEGFR2; sense SEQ ID 136, antisense SEQ ID 144 (sense mGmGmAmAmAmAfAfAfCmAmAmAmAmCmUmGmUmAmAdTdT; antisense {P}-mUfUmAmCmAmGmUmUmUmUmGmUmUfUmUmUmUmCmCdTdT) | 0.02 |  | 0.06 | 1.57 | 
VEGFR2-21-h2#mod: Modified (2′F, 2′OME, phosphorylation) siRNA targeting VEGFR2; sense SEQ ID 132, antisense SEQ ID 140 (sense mGmGmUmCmCmAfUfUfUmCmAmAmAmUmCmUmCmAmAdTdT; antisense {P}-mUfUmGmAmGmAmUmUmUmGmAmAmAfUmGmGmAmCmCdTdT) | 0.14 |  | 0.08 | 2.42 | 
VEGFR2-21-h7#mod: Modified (2′F, 2′OME, phosphorylation) siRNA targeting VEGFR2; sense SEQ ID 138, antisense SEQ ID 146 (sense mGmCmUmGmAmCfAfUfGmUmAmCmGmGmUmCmUmAmUdTdT; antisense {P}-mAfUmAmGmAmCmCmGmUmAmCmAmUfGmUmCmAmGmCdTdT) | 51.4 |  | 384 | 170 | 
VEGFR2-25-h3#: siRNA targeting VEGFR2 mRNA; sense SEQ ID 43, antisense SEQ ID 86 (sense GACCAACAUGGAGUCGUGUACAUUA; antisense UAAUGUACACGACUCCAUGUUGGUC; RNA, backbone not given here) | 1.8 |  | 0.35 | 10.9 | 
